EC50 data for eight molecules are collected here from ChEMBL document CHEMBL5725872, “Benzofuran compounds for the treatment of hepatitis C” (2018).

This experiment in a line: HCV Replicon Luciferase Assay: To evaluate compound efficacy, titrated compounds were transferred to sterile 384-well tissue culture treated plates, and the plates were seeded with HCV replicon cells (50 μL at a density of 2.4×10^3 cells/well) in DMEM containing 4% FBS (final DMSO concentration at 0.5%). After 3 days incubation at 37° C., cells were analyzed for Renilla Luciferase activity using the EnduRen substrate (Promega cat #E6485) according to the manufacturer's directions. Briefly, the EnduRen substrate was diluted in DMEM and then added to the plates to a final concentration of 7.5 μM. The plates were incubated for at least 1 h at 37° C. then read on a Viewlux Imager (PerkinElmer) using a luminescence program. The 50% effective concentration (EC50) was calculated using the four-parameter logistic Formula noted above. To assess cytotoxicity of compounds, Cell Titer-Blue (Promega) was added to the EnduRen-containing plates and incubated for at least 4 hrs at 37° C. The fluorescence signal from each well was read using a Viewlux Imager. All CC50 values were calculated using the four-parameter logistic Formula.

Each structure is given as a SMILES string.

With `CNC(=O)c1c(-c2ccc(F)cc2)oc2cc(N(CCF)S(C)(=O)=O)c(-c3cccc(C(=O)N4CCC[C@H]4CO)c3)cc12`, the EC50 (in general, the concentration needed to bring the measured effect to its halfway point) (72 h) was 100 to 1000 nM. `CNC(=O)c1c(-c2ccc(F)cc2)oc2cc(N(CCF)S(C)(=O)=O)c(-c3cccc(C(=O)NC(C)(C)C)c3)cc12`: the half-maximal effective concentration (EC50) is < 100 nM. Besides, the half-maximal effective concentration (EC50) (72 h) is < 100 nM.

Regarding `CNC(=O)c1c(-c2ccc(F)cc2)oc2cc(N(C(F)F)S(C)(=O)=O)c(-c3cccc(C(=O)O)c3)cc12`, the half-maximal effective concentration (EC50) (72 h) was > 10000 nM. Still for that read-out and setting: next, `CNC(=O)c1c(-c2ccc(F)cc2)oc2cc(N(CCCF)S(C)(=O)=O)c(-c3cccc(C(=O)N[C@@H](C)C(F)(F)F)c3)cc12`: < 100 nM; `CNC(=O)c1c(-c2ccc(F)cc2)oc2cc(N(CCF)S(C)(=O)=O)c(-c3cccc(C(=O)N4CC[C@H](O)C4)c3)cc12`: > 1000 nM. With `CNC(=O)c1c(-c2ccc(F)cc2)oc2cc(N(CCCF)S(C)(=O)=O)c(-c3cccc(C(=O)NC(C)(C)C)c3)cc12`, the EC50 was < 100 nM. For the same molecule, the EC50 (72 h) is < 100 nM. As to `CNC(=O)c1c(-c2ccc(F)cc2)oc2cc(N(CCCF)S(C)(=O)=O)c(-c3cccc(C(=O)N[C@H](C)C(F)(F)F)c3)cc12`, under “72 h”, the EC50 is < 100 nM.

Turning to `CC[C@H](NC(=O)c1cccc(-c2cc3c(C(=O)NC)c(-c4ccc(F)cc4)oc3cc2N(CCF)S(C)(=O)=O)c1)C1CC1`, the half-maximal effective concentration (EC50) (72 h) is < 100 nM.
